Experimental data taken from patent publication US20260297060A1, “COMPOUNDS FOR THE DEGRADATION OF MUTANT BRAF” (C4 THERAPEUTICS, INC., priority 2023, published 2026).
Where two headings read alike, the source gives them in different places.

Key:
BRAF V600E = target: T1, BRAF V600E (Homo sapiens, UniProt P15056+Q96SW2, V600E); experiment: BRAF V600E HiBiT Degradation Assay; format: cell-based
T1 construct: knock-in of the HiBiT tag to the endogenous BRAF V600E locus; host or cells: A375.10 (A375 clonal line, CRISPR HiBiT knock-in at the endogenous BRAF V600E locus)
T1 sequence (P15056 whole entry V600E): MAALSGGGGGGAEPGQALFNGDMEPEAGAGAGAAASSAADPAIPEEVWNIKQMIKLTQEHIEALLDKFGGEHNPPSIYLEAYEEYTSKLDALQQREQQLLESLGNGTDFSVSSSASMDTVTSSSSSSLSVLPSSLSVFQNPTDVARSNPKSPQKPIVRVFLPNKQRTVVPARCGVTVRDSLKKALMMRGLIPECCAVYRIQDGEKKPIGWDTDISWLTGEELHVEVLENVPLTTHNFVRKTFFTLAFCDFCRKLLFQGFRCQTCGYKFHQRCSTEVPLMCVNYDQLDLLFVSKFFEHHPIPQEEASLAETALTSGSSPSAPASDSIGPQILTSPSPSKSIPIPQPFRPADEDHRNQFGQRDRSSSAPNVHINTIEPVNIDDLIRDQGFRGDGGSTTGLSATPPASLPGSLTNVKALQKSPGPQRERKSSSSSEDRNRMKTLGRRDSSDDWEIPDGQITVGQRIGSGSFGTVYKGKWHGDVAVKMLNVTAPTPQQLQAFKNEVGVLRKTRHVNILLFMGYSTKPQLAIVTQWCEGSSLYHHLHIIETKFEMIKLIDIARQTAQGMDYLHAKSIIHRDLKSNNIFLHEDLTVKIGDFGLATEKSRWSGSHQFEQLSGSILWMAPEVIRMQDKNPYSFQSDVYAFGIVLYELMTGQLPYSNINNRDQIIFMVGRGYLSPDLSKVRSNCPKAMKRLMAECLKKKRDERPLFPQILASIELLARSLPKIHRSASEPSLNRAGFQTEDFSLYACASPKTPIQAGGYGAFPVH
T1 sequence (Q96SW2 whole entry): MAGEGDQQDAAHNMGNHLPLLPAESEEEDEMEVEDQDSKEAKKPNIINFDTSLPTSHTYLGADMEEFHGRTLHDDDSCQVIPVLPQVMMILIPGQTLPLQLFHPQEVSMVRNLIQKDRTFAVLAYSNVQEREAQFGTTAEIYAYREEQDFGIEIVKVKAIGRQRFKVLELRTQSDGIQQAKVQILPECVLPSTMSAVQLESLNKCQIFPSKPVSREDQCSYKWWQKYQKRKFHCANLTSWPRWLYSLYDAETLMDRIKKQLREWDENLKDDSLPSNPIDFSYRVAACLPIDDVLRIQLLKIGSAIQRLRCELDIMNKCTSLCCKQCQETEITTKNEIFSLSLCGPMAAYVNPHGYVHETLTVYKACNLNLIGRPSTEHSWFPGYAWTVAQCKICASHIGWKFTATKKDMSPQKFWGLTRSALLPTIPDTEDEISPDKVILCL
T1 sequence (Q16531 whole entry partner): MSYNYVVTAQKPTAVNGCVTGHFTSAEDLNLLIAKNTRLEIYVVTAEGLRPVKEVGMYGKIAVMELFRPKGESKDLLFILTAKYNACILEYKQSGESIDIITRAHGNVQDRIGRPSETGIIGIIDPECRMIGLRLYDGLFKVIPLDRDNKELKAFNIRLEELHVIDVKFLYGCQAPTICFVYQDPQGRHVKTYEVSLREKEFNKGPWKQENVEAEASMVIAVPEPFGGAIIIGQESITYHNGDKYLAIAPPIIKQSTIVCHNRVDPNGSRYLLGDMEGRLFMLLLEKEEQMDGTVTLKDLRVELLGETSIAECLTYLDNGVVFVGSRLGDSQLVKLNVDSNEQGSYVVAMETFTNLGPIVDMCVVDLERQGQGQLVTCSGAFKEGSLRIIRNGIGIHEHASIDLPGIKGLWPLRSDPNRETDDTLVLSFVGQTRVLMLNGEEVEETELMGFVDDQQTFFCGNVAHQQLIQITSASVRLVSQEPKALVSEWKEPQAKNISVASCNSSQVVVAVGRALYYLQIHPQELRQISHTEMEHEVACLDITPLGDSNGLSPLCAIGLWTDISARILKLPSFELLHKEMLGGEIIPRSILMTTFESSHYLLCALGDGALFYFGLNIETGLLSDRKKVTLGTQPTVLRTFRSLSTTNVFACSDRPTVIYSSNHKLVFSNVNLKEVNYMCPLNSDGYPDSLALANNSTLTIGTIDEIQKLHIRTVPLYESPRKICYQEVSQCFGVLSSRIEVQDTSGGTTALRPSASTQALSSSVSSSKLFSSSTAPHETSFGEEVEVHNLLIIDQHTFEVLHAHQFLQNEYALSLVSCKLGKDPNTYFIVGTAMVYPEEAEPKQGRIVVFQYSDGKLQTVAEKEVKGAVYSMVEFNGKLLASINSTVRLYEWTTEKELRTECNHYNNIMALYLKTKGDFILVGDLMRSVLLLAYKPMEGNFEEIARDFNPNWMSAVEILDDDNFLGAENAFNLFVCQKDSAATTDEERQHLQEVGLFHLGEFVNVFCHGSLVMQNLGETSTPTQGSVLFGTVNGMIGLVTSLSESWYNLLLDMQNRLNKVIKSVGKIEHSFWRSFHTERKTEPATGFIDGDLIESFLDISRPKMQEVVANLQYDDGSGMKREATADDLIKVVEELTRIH
How it was run: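 Endogenous HiBiT knock-in on BRAF V600E in A375 cells (clone A375.10); 11-point half-log series, top 10 μM, 2, 6 or 24 h at 37° C. Lytic HiBiT luminescence, background-subtracted, normalized to DMSO; 4-parameter fit gives DC50, Emax (residual protein) and IP (inflection point).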

A375-NRAS^Q61K cells = experiment: CTGlo Cell Viability Assay, A375-NRAS^Q61K (A375.11) cells, 96 hours; format: cell-based, human; conditions: A375.11 (A375-NRAS^Q61K) cells; for Emax / CTGlo A375.11 96 hours Emax: lowest % viability achieved
How it was run: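 Viability as CellTiter-Glo ATP luminescence after 96 h compound exposure at 37 °C; A375.11 (BRAF V600E/NRAS Q61K) cells at 250/well, top final concentration 10 μM in half-log steps. Signal was background-corrected and set relative to DMSO controls. A 4-parameter logistic fit gave GI50 (50% crossing) and Emax.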

[1] = A375.10 cells, BRAF V600E, 2 hours, inflection point, read-out: HiBiT-Degradation A375.10 BRAF 2 hours IP
[2] = A375.10 cells, BRAF V600E, 2 hours, read-out: HiBiT-Degradation A375.10 BRAF 2 hours DC50
[3] = A375.10 cells, BRAF V600E, 2 hours, residual protein remaining, read-out: HiBiT-Degradation A375.10 BRAF 2 hours Emax
[4] = A375.10 cells, HiBiT, BRAF V600E, 24 hours, read-out: HiBiT-Degradation A375.10 BRAF 24 hours DC50
[5] = A375.10 cells, HiBiT, BRAF V600E, 24 hours, read-out: HiBiT-Degradation A375.10 BRAF 24 hours Emax
[6] = A375.10 cells, HiBiT, BRAF V600E, 24 hours, read-out: HiBiT-Degradation A375.10 BRAF 24 hours IP
[7] = A375.10 cells, BRAF V600E, 2 hours, residual protein remaining
[8] = read-out: HiBiT-Degradation A375.10 BRAF 2 hours DC50, A375.10 cells, BRAF V600E, 2 hours
[9] = read-out: HiBiT-Degradation A375.10 BRAF 2 hours Emax, A375.10 cells, BRAF V600E, 2 hours, residual protein remaining
[10] = read-out: HiBiT-Degradation A375.10 BRAF 2 hours IP, A375.10 cells, BRAF V600E, 2 hours, inflection point

Structure (SMILES) | DC50 (BRAF V600E; [1]) | DC50 (BRAF V600E; [2]) | Emax (BRAF V600E; [3]) | GI50 (A375-NRAS^Q61K cells; Homo sapiens, 96 h) | Emax (A375-NRAS^Q61K cells; Homo sapiens, 96 h) | DC50 (BRAF V600E; [4]) | Emax (BRAF V600E; [5]) | DC50 (BRAF V600E; [6]) | GI50 (A375-NRAS^Q61K cells) | HiBiT-Degradation A375.10 BRAF 2 hours Emax (BRAF V600E; [7]) | CTGlo A375.11 96 hours Emax (A375-NRAS^Q61K cells) | DC50 (BRAF V600E; [8]) | Emax (BRAF V600E; [9]) | DC50 (BRAF V600E; [10]) | HiBiT-Degradation A375.10 BRAF 2 hours Emax (BRAF V600E)
CN(CCO)S(=O)(=O)Nc1ccc(F)c(Oc2ccc3ncn([C@H]4COC5(CCC(N6CCC(c7cc8c(cc7F)c(N7CCC(=O)NC7=O)nn8C)C(F)(F)C6)CC5)C4)c(=O)c3c2)c1C#N (single isomer, unassigned) [Compound 212] | < 1000 nM | < 1000 nM | < 50% | < 1000 nM | 50 to 90% |  |  |  |  |  |  |  |  |  | 
CCN(C)S(=O)(=O)Nc1ccc(F)c(Oc2ccc3ncn([C@H]4COC5(CCN(CC6(O)CCN(c7cc8c(cc7F)c(N7CCC(=O)NC7=O)nn8C)CC6)CC5)C4)c(=O)c3c2)c1C#N [Compound 230, (3R)-3-[6-[2-cyano-3-[[ethyl(methyl)sulfamoyl]amino]-6-fluoro-phenoxy]-4-oxo-quinazolin-3-yl]-8-[[1-[3-(2,4-dioxohexahydropyrimidin-1-yl)-5-fluoro-1-methyl-indazol-6-yl]-4-hydroxy-4-piperidyl]methyl]-1-oxa-8-azaspiro[4.5]decane] | < 1000 nM | < 1000 nM | < 50% | < 1000 nM | 50 to 90% | < 1000 nM | < 50% | < 1000 nM |  |  |  |  |  |  | 
CCN(C)S(=O)(=O)Nc1ccc(F)c(Nc2ccc3ncn([C@@H]4COC5(CCN(C6CCC(c7cc8c(cc7F)c(N7CCC(=O)NC7=O)nn8C)CC6)CC5)C4)c(=O)c3c2F)c1C#N (single isomer, unassigned) [Compound 68] | < 1000 nM | < 1000 nM | < 50% |  | < 50% |  |  |  | > 10000 nM |  |  |  |  |  | 
CCN(C)S(=O)(=O)Nc1ccc(F)c(Oc2ccc3ncc(OCC4(O)CCN(C5CCC(c6cc7c(cc6F)c(N6CCC(=O)NC6=O)nn7C)CC5)CC4)nc3c2)c1C#N (single isomer, unassigned) [Compound 196, 7-[2-cyano-3-[[ethyl(methyl)sulfamoyl]amino]-6-fluoro-phenoxy]-2-[[1-[4-[3-(2,4-dioxohexahydropyrimidin-1-yl)-5-fluoro-1-methyl-indazol-6-yl]cyclohexyl]-4-hydroxy-4-piperidyl]methoxy]quinoxaline] | < 1000 nM | < 1000 nM |  |  |  |  |  |  | < 1000 nM | *** (<=50%) | ** (<90% and >50%) |  |  |  | 
CO[C@H]1CCN(S(=O)(=O)Nc2ccc(F)c(Oc3ccc4ncn(C5CC6(CCN(C7CC8(C7)CN(c7cc9c(cc7F)c(N7CCC(=O)NC7=O)nn9C)C8)CC6)C5)c(=O)c4c3)c2C#N)C1 (stereo partly drawn) [Compound 272, (3S)-N-[2-cyano-3-[3-[7-[2-[3-(2,4-dioxohexahydropyrimidin-1-yl)-5-fluoro-1-methyl-indazol-6-yl]-2-azaspiro[3.3]heptan-6-yl]-7-azaspiro[3.5]nonan-2-yl]-4-oxo-quinazolin-6-yl]oxy-4-fluoro-phenyl]-3-methoxy-pyrrolidine-1-sulfonamide] |  |  |  | > 10000 nM | 50 to 90% |  |  |  |  |  |  | < 1000 nM | < 50% | < 1000 nM | 
CCN(C)S(=O)(=O)Nc1ccc(F)c(Oc2ccc3ncn(C4CC5(CCN([C@H]6C[C@@H](c7cc8c(cc7F)c(N7CCC(=O)NC7=O)nn8C)C6)CC5)C4)c(=O)c3c2)c1C#N [Compound 209, 6-[2-cyano-3-[[ethyl(methyl)sulfamoyl]amino]-6-fluoro-phenoxy]-3-[7-[3-[3-(2,4-dioxohexahydropyrimidin-1-yl)-5-fluoro-1-methyl-indazol-6-yl]cyclobutyl]-7-azaspiro[3.5]nonan-2-yl]-4-oxo-quinazoline] | < 1000 nM | < 1000 nM | 50 to 90% | 1000 to 10000 nM | < 50% |  |  |  |  |  |  |  |  |  | 
Cn1nc(N2CCC(=O)NC2=O)c2cc(F)c(N3CC4(CC(N5CCC6(CC5)CC(n5cnc7ccc(Oc8c(F)ccc(NS(=O)(=O)N9CCOCC9)c8C#N)cc7c5=O)C6)C4)C3)cc21 [Compound 262, N-[2-cyano-3-[3-[7-[2-[3-(2,4-dioxohexahydropyrimidin-1-yl)-5-fluoro-1-methyl-indazol-6-yl]-2-azaspiro[3.3]heptan-6-yl]-7-azaspiro[3.5]nonan-2-yl]-4-oxo-quinazolin-6-yl]oxy-4-fluoro-phenyl]morpholine-4-sulfonamide] | < 1000 nM | < 1000 nM | < 50% | < 1000 nM | 50 to 90% |  |  |  |  |  |  |  |  |  | 
CCN(C)S(=O)(=O)Nc1ccc(F)c(Oc2ccc3ncn(C4CC5(CCN(C6CCC7(CC6)CN(c6cc8c(cc6F)c(N6CCC(=O)NC6=O)nn8C)C7)CC5)C4)c(=O)c3c2)c1C#N (centres unmarked) [Compound 220, 6-[2-cyano-3-[[ethyl(methyl)sulfamoyl]amino]-6-fluoro-phenoxy]-3-[7-[2-[3-(2,4-dioxohexahydropyrimidin-1-yl)-5-fluoro-1-methyl-indazol-6-yl]-2-azaspiro[3.5]nonan-7-yl]-7-azaspiro[3.5]nonan-2-yl]-4-oxo-quinazoline] | < 1000 nM | > 10000 nM | 50 to 90% | > 10000 nM | 50 to 90% |  |  |  |  |  |  |  |  |  | 
CCN(C)S(=O)(=O)Nc1ccc(F)c(Oc2ccc3ncc([C@@H]4COC5(CCN(C6CC7(C6)CN(c6cc8c(cc6F)c(N6CCC(=O)NC6=O)nn8C)C7)CC5)C4)nc3c2)c1C#N [Compound 161, (3R)-3-[7-[2-cyano-3-[[ethyl(methyl)sulfamoyl]amino]-6-fluoro-phenoxy]quinoxalin-2-yl]-8-[2-[3-(2,4-dioxohexahydropyrimidin-1-yl)-5-fluoro-1-methyl-indazol-6-yl]-2-azaspiro[3.3]heptan-6-yl]-1-oxa-8-azaspiro[4.5]decane] | < 1000 nM | > 10000 nM |  | 1000 to 10000 nM | 50 to 90% |  |  |  |  |  |  |  | 50 to 90% |  | 
CCN(C)S(=O)(=O)Nc1ccc(F)c(Oc2ccc3ncc(C4CC5(CCN(C6CCC(c7cc8c(cc7F)c(N7CCC(=O)NC7=O)nn8C)CC6)CC5)C4)nc3c2)c1C#N (single isomer, unassigned) [Compound 181, 7-[2-cyano-3-[[ethyl(methyl)sulfamoyl]amino]-6-fluoro-phenoxy]-2-[7-[4-[3-(2,4-dioxohexahydropyrimidin-1-yl)-5-fluoro-1-methyl-indazol-6-yl]cyclohexyl]-7-azaspiro[3.5]nonan-2-yl]quinoxaline] | < 1000 nM | < 1000 nM |  |  |  |  |  |  | < 1000 nM |  | *** (<=50%) |  |  |  | *** (<=50%)
CCN(C)S(=O)(=O)Nc1ccc(F)c(Oc2ccc3ncn(C4CC5(CCN(CC6(O)CCN(c7cc8c(cc7F)c(N7CCC(=O)NC7=O)nn8C)CC6)CC5)C4)c(=O)c3c2)c1C#N [Compound 226, 6-[2-cyano-3-[[ethyl(methyl)sulfamoyl]amino]-6-fluoro-phenoxy]-3-[7-[[1-[3-(2,4-dioxohexahydropyrimidin-1-yl)-5-fluoro-1-methyl-indazol-6-yl]-4-hydroxy-4-piperidyl]methyl]-7-azaspiro[3.5]nonan-2-yl]-4-oxo-quinazoline] | < 1000 nM | < 1000 nM | < 50% | < 1000 nM | 50 to 90% | < 1000 nM | < 50% | < 1000 nM |  |  |  |  |  |  | 
Cn1nc(N2CCC(=O)NC2=O)c2cc(F)c(N3CC4(CC(N5CCC6(CC5)CC(c5cnc7ccc(Oc8c(F)ccc(NS(=O)(=O)N9CC[C@@H](F)C9)c8C#N)cc7n5)C6)C4)C3)cc21 [Compound 265, (3R)-N-[2-cyano-3-[3-[7-[2-[3-(2,4-dioxohexahydropyrimidin-1-yl)-5-fluoro-1-methyl-indazol-6-yl]-2-azaspiro [3.3]heptan-6-yl]-7-azaspiro [3.5]nonan-2-yl]quinoxalin-6-yl]oxy-4-fluoro-phenyl]-3-fluoro-pyrrolidine-1-sulfonamide] |  |  | < 50% | < 1000 nM | < 50% |  |  |  |  |  |  | < 1000 nM |  | < 1000 nM | 
CCN(C)S(=O)(=O)Nc1ccc(F)c(Oc2ccc3ncn(C4CCC5(CC4)CCN(C4CCC(c6ccc(NC7CCC(=O)NC7=O)cc6F)CC4)CC5)c(=O)c3c2)c1C#N (single isomer, unassigned) [Compound 11, 9-[6-[2-cyano-3-[[ethyl(methyl)sulfamoyl]amino]-6-fluoro-phenoxy]-4-oxo-quinazolin-3-yl]-3-[4-[4-[(2,6-dioxo-3-piperidyl)amino]-2-fluoro-phenyl]cyclohexyl]-3-azaspiro[5.5]undecane] | < 1000 nM | < 1000 nM |  |  | 50 to 90% |  |  |  | > 10000 nM | *** (<=50%) |  |  |  |  | 
